# Data: US20200216454A1, “BIFUNCTIONAL MOLECULES FOR HER3 DEGRADATION AND METHODS OF USE” (Dana-Farber Cancer Institute, Inc., priority 2016, published 2020)
# Tests used:
# [1] = biological target: T1, Her3 (Homo sapiens, UniProt P21860); test: Her3 protein degradation by Western blot; format: cell-based; design: endogenous in cells; host or cells: PC9-GR4; Ovacar 8; key: (+): Her3 protein was degraded; (−): Her3 protein was not degraded; details: PC9-GR4 or Ovacar 8 cell lines, 2 μM, 4 hour and 8 hour
# Description: Cells are seeded at the desired density the day before treatment starts with bifunctional compounds of the application at various concentration. After 4 to 12 hrs, cells are washed with buffer and lysed. The lysates are centrifuged and the supernatant is collected. Protein concentrations are measured using a protein assay kit, such as the BCA protein assay kit, Pierce, catalog number 23225) and normalized. Samples are run on a SDS-PAGE gel, and transferred to a PVDF membrane. The PVDF membrane is probed with the appropriate antibody.
# Her3 protein degradation was assessed by Western blots after treatment of PC9-GR4 cell lines or Ovacar 8 cell lines with 2 μM of representative compounds for 4 hour and 8 hour.
# Cells were seeded at a density of […] per 6 cm plate the day before treatment started with representative compounds of the application at the indicated concentration. After 4 to 12 hours, cells were washed with phosphate-buffered saline. Lysis buffer included 50 mM Tris-HCl, 150 mM NaCl, 1% NP-40, and 5 mM EDTA, pH 7.4+/−0.2, Roche PhosSTOP phosphatase inhibitor cocktail tablets and Roche Complete Protease inhibitor cocktail tablets. Cell lysis was accomplished by the addition of lysis buffer for 5-10 minutes on ice. Lysates were centrifuged in a microcentrifuge at 14,000 r.p.m. for 15 minutes at 4° C. and the supernatant was collected. Protein concentrations were measured using BCA protein assay kit (Pierce, catalog number 23225) and normalized. Samples were run on a 4%-12% SDS-PAGE gel at 120 V. After transfer, the PVDF membrane was probed with anti-Her3 antibody, Santa Cruz, catalog number sc-285 at 1:1000 dilution.
# Target sequence in this assay (P21860 20-1342): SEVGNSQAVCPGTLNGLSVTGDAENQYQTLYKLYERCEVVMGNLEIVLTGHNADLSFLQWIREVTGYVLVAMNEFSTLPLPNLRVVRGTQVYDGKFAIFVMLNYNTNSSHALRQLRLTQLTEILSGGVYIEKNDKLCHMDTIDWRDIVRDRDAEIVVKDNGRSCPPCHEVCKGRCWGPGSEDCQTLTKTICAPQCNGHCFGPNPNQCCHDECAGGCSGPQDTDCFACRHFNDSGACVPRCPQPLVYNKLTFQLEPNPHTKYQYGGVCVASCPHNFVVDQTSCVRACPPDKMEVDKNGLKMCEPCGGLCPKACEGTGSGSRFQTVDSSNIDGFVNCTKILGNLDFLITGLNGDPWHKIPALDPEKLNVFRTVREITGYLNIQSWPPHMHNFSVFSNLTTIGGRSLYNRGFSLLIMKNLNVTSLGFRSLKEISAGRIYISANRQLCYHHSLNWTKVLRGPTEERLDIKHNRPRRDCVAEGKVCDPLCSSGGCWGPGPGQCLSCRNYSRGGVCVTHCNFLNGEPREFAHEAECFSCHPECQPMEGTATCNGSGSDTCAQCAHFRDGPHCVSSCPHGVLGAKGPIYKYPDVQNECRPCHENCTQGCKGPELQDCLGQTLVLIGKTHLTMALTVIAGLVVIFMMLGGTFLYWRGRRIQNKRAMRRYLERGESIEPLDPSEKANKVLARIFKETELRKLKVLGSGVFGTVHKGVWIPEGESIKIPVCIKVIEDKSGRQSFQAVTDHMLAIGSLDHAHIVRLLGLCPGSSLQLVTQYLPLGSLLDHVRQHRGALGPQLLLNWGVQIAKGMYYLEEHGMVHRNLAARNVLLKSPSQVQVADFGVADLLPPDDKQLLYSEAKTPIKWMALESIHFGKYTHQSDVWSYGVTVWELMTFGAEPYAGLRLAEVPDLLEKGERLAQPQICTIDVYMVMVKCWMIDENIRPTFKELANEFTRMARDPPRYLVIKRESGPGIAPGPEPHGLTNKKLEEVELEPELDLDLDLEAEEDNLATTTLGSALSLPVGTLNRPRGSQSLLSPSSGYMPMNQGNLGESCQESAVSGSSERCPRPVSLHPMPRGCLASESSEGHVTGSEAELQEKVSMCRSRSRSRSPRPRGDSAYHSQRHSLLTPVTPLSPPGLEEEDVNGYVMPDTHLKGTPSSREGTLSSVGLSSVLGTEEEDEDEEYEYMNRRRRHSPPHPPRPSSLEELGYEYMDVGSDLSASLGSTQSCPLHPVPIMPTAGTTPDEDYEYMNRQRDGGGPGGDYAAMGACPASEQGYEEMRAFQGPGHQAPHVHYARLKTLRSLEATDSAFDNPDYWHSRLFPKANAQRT
# [2] = test system: Ovacar 8; test: Anti-proliferation MTS assay, Ovacar 8; format: cell-based; details: 72 h, Ovacar 8 cells, 3 days, read-out: Cell lines (EC50, μM) Ovacar 8
# Description: (§1) Cells are seeded and incubated for 3 d after bifunctional compounds of the application are added. Cell viability is measured via MTS Assay. This assay uses a colorimetric method to determine the number of viable cells based on the bioreduction of MTS by cells to a formazan product that is soluble in cell culture medium and can be detected spectrophotometrically. In a typical experiment, the supernatant is removed and replaced by 100 μl of RPMI media supplemented with MTS reagent and PMS. The plates are measured with Perkin Elmer EnVision after reaching an optical density (OD) of 1.0-2.0 at a wavelength of 490 nm. The cell numbers are normalized compared to DMSO control, and the EC50 values are calculated using GraphPad Prism.
# (§2) Five cell lines, PC9-GR4, 826-GR6, Ovacar 8, A549, and Ovacar 5 were grown and treated with representative compounds Viability of the cells after the treatment was assessed by MTS assay.
# (§3) The anti-proliferation assay was carried out using 96-well clear bottom plates. […] Cell viability was measured via MTS Assay. This assay uses a colorimetric method to determine the number of viable cells based on the bioreduction of MTS by cells to a formazan product that is soluble in cell culture medium and can be detected spectrophotometrically. […] The plates were measured with Perkin Elmer EnVision after reaching an optical density (OD) of 1.0-2.0 at a wavelength of 490 nm. […]
# [3] = biological target: T1, Her3; test: LanthaScreen Eu kinase binding assay; design: purchased Life Technologies; details: read-out: Binding Affinities (IC50)
# Description: Lantha screening is performed by following the method reported in Nature Chemical Biology, 10, 1006-1012 (2014).
# Binding affinities (IC50) of representative compounds were measured by the Life Technologies LanthaScreen Eu kinase binding assay, which was previously described (Xie T. et al., Nat. Chem. Biol. 2014, 10, 1006-1012).
# Lantha screening was performed by following the method reported in Nature Chemical Biology, 10, 1006-1012 (2014).
# Target sequence in this assay (P21860 20-1342, species assumed): as the sequence (P21860 20-1342) above
# [4] = test system: PC9-GR4; test: Anti-proliferation MTS assay, PC9-GR4; format: cell-based; details: 72 h, PC9-GR4 cells, 3 days, read-out: Cell lines (EC50, μM) PC9-GR4
# Description: as §1, §2, §3
# [5] = test system: 826-GR6; test: Anti-proliferation MTS assay, 826-GR6; format: cell-based; details: 72 h, 826-GR6 cells, 3 days, read-out: Cell lines (EC50, μM) 826-GR6
# Description: as §1, §2, §3
# [6] = test system: A549; test: Anti-proliferation MTS assay, A549; format: cell-based; details: Homo sapiens, 72 h, A549 cells, 3 days, read-out: Cell lines (EC50, μM) A549
# Description: as §1, §2, §3
# [7] = test system: Ovacar 5; test: Anti-proliferation MTS assay, Ovacar 5; format: cell-based; details: 72 h, Ovacar 5 cells, 3 days, read-out: Cell lines (EC50, μM) Ovacar 5
# Description: as §1, §2, §3
SMILES,Her3 Degradation [1],IC50 [3],other results
C=CC(=O)Nc1cc(-c2nn(C3CCN(CCOCCOCCOCCC(=O)N[C@@H](C(=O)N4C[C@@H](O)C[C@@H]4C(=O)NCc4ccc(-c5scnc5C)cc4)C(C)(C)C)CC3)c3ncnc(N)c23)ccc1Oc1ccccc1 [Compound PP1],−,,
C=CC(=O)Nc1cc(-c2nn(C3CCN(CC(=O)NCCCCCCCCNC(=O)COc4cccc5c4C(=O)N(C4CCC(=O)NC4=O)C5=O)CC3)c3ncnc(N)c23)ccc1Oc1ccccc1 (stereo not drawn) [Compound PP4],+,,EC50 [2]: 5 to 15 µM
Nc1ncnc2c1c(-c1ccc(Oc3ccccc3)c([N+](=O)[O-])c1)nn2C1CCN(CC(=O)NCCCCNC(=O)COc2cccc3c2C(=O)N(C2CCC(=O)NC2=O)C3=O)CC1 (stereo not drawn) [Compound PP7],−,0.01 to 0.1 µM,
Cc1ncsc1-c1ccc(CNC(=O)[C@@H]2C[C@@H](O)CN2C(=O)[C@@H](NC(=O)CCOCCOCCOCCN2CCC(n3nc(-c4ccc(Oc5ccccc5)c([N+](=O)[O-])c4)c4c(N)ncnc43)CC2)C(C)(C)C)cc1 [Compound PP8],+,> 0.1 µM,EC50 [4]: > 15 µM
C=CC(=O)Nc1cc(-c2nn(C3CCN(CC(=O)NCCCOCCOCCOCCCNC(=O)COc4cccc5c4C(=O)N(C4CCC(=O)NC4=O)C5=O)CC3)c3ncnc(N)c23)ccc1Oc1ccccc1 (stereo not drawn) [Compound PP5],−,,
C=CC(=O)Nc1cc(-c2nn(C3CCN(CC(=O)NCCCCNC(=O)COc4cccc5c4C(=O)N(C4CCC(=O)NC4=O)C5=O)CC3)c3ncnc(N)c23)ccc1Oc1ccccc1 (stereo not drawn) [Compound PP3],+,,
Nc1ncnc2c1c(-c1ccc(Oc3ccccc3)c([N+](=O)[O-])c1)nn2C1CCN(CC(=O)NCCOCCOCCOCCNC(=O)COc2cccc3c2C(=O)N(C2CCC(=O)NC2=O)C3=O)CC1 (stereo not drawn) [Compound PP6],−,0.01 to 0.1 µM,
C=CC(=O)Nc1cc(-c2nn(C3CCN(CC(=O)N[C@@H](C(=O)N4C[C@@H](O)C[C@@H]4C(=O)NCc4ccc(-c5scnc5C)cc4)C(C)(C)C)CC3)c3ncnc(N)c23)ccc1Oc1ccccc1 [Compound PP2],+,,EC50 [4]: 5 to 15 µM; EC50 [5]: 5 to 15 µM; EC50 [2]: < 5 µM; EC50 [6]: 5 to 15 µM; EC50 [7]: 5 to 15 µM
